Assay results taken from patent US20070249620A1, “Urea Derivative” (priority 2004, published 2007).

Row | melting point [°C] | Structure (SMILES)
1 | 184 | COc1ccccc1NC(=O)Nc1ccc(N2CCN(C(=O)OC(C)(C)C)CC2)cc1 [Example 13, 4-{4-[3-(2-methoxy-phenyl)-ureido]-phenyl}-piperazine-1-carboxylic acid tert-butyl ester]
2 | 154 to 155 | CC(C)(C)OC(=O)N1CCN(c2ccc(NC(=O)Nc3ccccc3OC(F)F)cc2)CC1 [Example 9, 4-{4-[3-(2-difluoromethoxy-phenyl)-ureido]-phenyl}-piperazine-1-carboxylic acid tert-butyl ester]
3 | 207 | CC(C)(C)OC(=O)N1CCN(c2ccc(NC(=O)Nc3ccccc3[N+](=O)[O-])cc2)CC1 [Example 6, 4-{4-[3-(2-nitro-phenyl)-ureido]-phenyl}-piperazine-1-carboxylic acid tert-butyl ester]
4 | 162 | CCc1ccccc1NC(=O)Nc1ccc(N2CCN(C(=O)OC(C)(C)C)CC2)cc1 [Example 17, 4-{4-[3-(2-ethyl-phenyl)-ureido]-phenyl}-piperazine-1-carboxylic acid tert-butyl ester]
5 | 169 to 172 | Cc1cccc(NC(=O)Nc2ccc(N3CCN(C(=O)OC(C)(C)C)CC3)cc2)c1 [Example 31, 4-[4-(3-m-tolyl-ureido)-phenyl]-piperazine-1-carboxylic acid tert-butyl ester]
6 | 164 to 166 | CC(C)(C)OC(=O)N1CCN(c2ccc(NC(=O)Nc3ccccc3F)cc2)CC1 [Example 14, 4-{4-[3-(2-fluoro-phenyl)-ureido]-phenyl}-piperazine-1-carboxylic acid tert-butyl ester]
7 | 157 | COc1ccc(C)cc1NC(=O)Nc1ccc(N2CCN(C(=O)OC(C)(C)C)CC2)cc1 [Example 2, 4-{4-[3-(2-methoxy-5-methyl-phenyl)-ureido]-phenyl}-piperazine-1-carboxylic acid tert-butyl ester]
8 | 188 to 191 | Cc1ccccc1NC(=O)Nc1ccc(N2CCN(C(=O)OC(C)(C)C)CC2)cc1 [Example 16, 4-[4-(3-o-tolyl-ureido)-phenyl]-piperazine-1-carboxylic acid tert-butyl ester]
9 | 84 | CCOc1ccccc1NC(=O)Nc1ccc(N2CCN(C(=O)OC(C)(C)C)CC2)cc1 [Example 4, 4-{4-[3-(2-ethoxy-phenyl)-ureido]-phenyl}-piperazine-1-carboxylic acid tert-butyl ester]
10 | 205 | COc1ccc(Cl)cc1NC(=O)Nc1ccc(N2CCN(C(=O)OC(C)(C)C)CC2)cc1 [Example 1, 4-{4-[3-(5-chloro-2-methoxy-phenyl)-ureido]-phenyl}-piperazine-1-carboxylic acid tert-butyl ester]
11 | 177 to 181 | CCCc1ccccc1NC(=O)Nc1ccc(N2CCN(C(=O)OC(C)(C)C)CC2)cc1 [Example 18, 4-{4-[3-(2-propyl-phenyl)-ureido]-phenyl}-piperazine-1-carboxylic acid tert-butyl ester]
12 | 186 to 187 | CC(C)(C)OC(=O)N1CCN(c2ccc(NC(=O)Nc3ccccc3Oc3ccccc3)cc2)CC1 [Example 7, 4-{4-[3-(2-phenoxy-phenyl)-ureido]-phenyl}-piperazine-1-carboxylic acid tert-butyl ester]

The remaining lines, values behind:

Row | Structure (SMILES) | melting point [°C]
13 | COc1ccc(C)cc1NC(=O)Nc1ccc(N2CCN(C(=O)OC(C)(C)C)CC2)cc1C [Example 194, 4-{4-[3-(2-methoxy-5-methyl-phenyl)-ureido]-3-methyl-phenyl}-piperazine-1-carboxylic acid tert-butyl ester] | 169 to 171
14 | COc1ccc(Cl)cc1NC(=O)Nc1ccc(N2CCN(C(=O)Nc3c(C)cccc3OC)CC2)cc1 [Example 182, 4-{4-[3-(5-chloro-2-methoxy-phenyl)-ureido]-phenyl}-piperazine-1-carboxylic acid (2-methoxy-6-methyl-phenyl)-amide] | 165 to 167
15 | CC(C)(C)OC(=O)N1CCN(c2ccc(NC(=O)Nc3cc(C(F)(F)F)ccc3F)cc2)CC1 [Example 27, 4-{4-[3-(2-fluoro-5-trifluoromethyl-phenyl)-ureido]-phenyl}-piperazine-1-carboxylic acid tert-butyl ester] | 241
16 | CCCCOc1ccc(NC(=O)Nc2ccc(N3CCN(C(=O)OC(C)(C)C)CC3)cc2)cc1 [Example 26, 4-{4-[3-(4-butoxy-phenyl)-ureido]-phenyl}-piperazine-1-carboxylic acid tert-butyl ester] | 185 to 188
17 | CCOc1ccc(Cl)cc1NC(=O)Nc1ccc(N2CCN(C(=O)OC(C)(C)C)CC2)cc1 [Example 43, 4-{4-[3-(5-chloro-2-ethoxy-phenyl)-ureido]-phenyl}-piperazine-1-carboxylic acid tert-butyl ester] | 165 to 167
18 | COc1ccc(C)cc1NC(=O)Nc1ccc(N2CCN(C(=O)C3CCCCC3C)CC2)cc1 (stereo not drawn) [Example 190, 1-(2-methoxy-5-methyl-phenyl)-3-{4-[4-(2-methyl-cyclohexanecarbonyl)-piperazin-1-yl]-phenyl}-urea] | 208 to 209
19 | CC(C)(C)OC(=O)N1CCN(c2ccc(NC(=O)Nc3cccc(Oc4ccccc4)c3)cc2)CC1 [Example 3, 4-{4-[3-(3-phenoxy-phenyl)-ureido]-phenyl}-piperazine-1-carboxylic acid tert-butyl ester] | 172
20 | COc1ccc(C)cc1NC(=O)Nc1ccc(N2CCC(C(=O)c3ccccc3)CC2)nc1 [Example 205, 1-(4-benzoyl-3,4,5,6-tetrahydro-2H-[1,2′]bipyridinyl-5′-yl)-3-(2-methoxy-5-methyl-phenyl)-urea] | 193 to 194
21 | Cc1ccc(C)c(NC(=O)Nc2ccc(N3CCN(C(=O)OC(C)(C)C)CC3)cc2)c1 [Example 19, 4-{4-[3-(2,5-dimethyl-phenyl)-ureido]-phenyl}-piperazine-1-carboxylic acid tert-butyl ester] | 219 to 220
22 | COc1ccc(C)cc1NC(=O)Nc1ccc(N2CCN(C(=O)Nc3ccc(Br)cc3C)CC2)cc1 [Example 70, 4-{4-[3-(2-methoxy-5-methyl-phenyl)-ureido]-phenyl}-piperazine-1-carboxylic acid (4-bromo-2-methyl-phenyl)-amide] | 191 to 193
23 | CC(C)(C)OC(=O)N1CCN(c2ccc(NC(=O)Nc3cc(Cl)ccc3N)cc2)CC1 [Example 11, 4-{4-[3-(2-amino-5-chloro-phenyl)-ureido]-phenyl}-piperazine-1-carboxylic acid tert-butyl ester] | 187 to 189
24 | CC(C)(C)OC(=O)N1CCN(c2ccc(NC(=O)Nc3cc(Cl)ccc3[N+](=O)[O-])cc2)CC1 [Example 10, 4-{4-[3-(5-chloro-2-nitro-phenyl)-ureido]-phenyl}-piperazine-1-carboxylic acid tert-butyl ester] | 205
25 | COc1ccc(Cl)cc1NC(=O)Nc1ccc(N2CCN(C(=O)Nc3ccccc3C)CC2)cc1 [Example 69, 4-{4-[3-(5-chloro-2-methoxy-phenyl)-ureido]-phenyl}-piperazine-1-carboxylic acid o-tolylamide] | 230 to 232
26 | COc1ccc(F)cc1NC(=O)Nc1ccc(N2CCN(C(=O)OC(C)(C)C)CC2)nc1 [Example 45, 4-{5-[3-(5-fluoro-2-methoxy-phenyl)-ureido]-pyridin-2-yl}-piperazine-1-carboxylic acid tert-butyl ester] | 200 to 201
27 | CN(C)c1ccc(NC(=O)Nc2ccc(N3CCN(C(=O)OC(C)(C)C)CC3)cc2)cc1 [Example 20, 4-{4-[3-(4-dimethylamino-phenyl)-ureido]-phenyl}-piperazine-1-carboxylic acid tert-butyl ester] | 207
28 | COc1ccc(C)cc1NC(=O)Nc1ccc(N2CCN(C(=O)OC(C)(C)C)CC2)c(C)c1 [Example 195, 4-{4-[3-(2-methoxy-5-methyl-phenyl)-ureido]-2-methyl-phenyl}-piperazine-1-carboxylic acid tert-butyl ester] | 103 to 105
29 | CC(C)(C)OC(=O)N1CCN(c2ccc(NC(=O)Nc3cc(C(F)(F)F)ccc3Cl)cc2)CC1 [Example 28, 4-{4-[3-(2-chloro-5-trifluoromethyl-phenyl)-ureido]-phenyl}-piperazine-1-carboxylic acid tert-butyl ester] | 221 to 223
30 | COc1ccc(C)cc1NC(=O)Nc1ccc(N2CCN(C(=O)Nc3ccc(F)cc3F)CC2)cc1 [Example 72, 4-{4-[3-(2-methoxy-5-methyl-phenyl)-ureido]-phenyl)-piperazine-1-carboxylic acid (2,4-difluoro-phenyl)-amide] | 201 to 203
31 | COc1ccc(C)cc1NC(=O)Nc1ccc(N2CCN(C(=O)Nc3cccc(C)c3C)CC2)cc1 [Example 108, 4-{4-[3-(2-methoxy-5-methyl-phenyl)-ureido]-phenyl}-piperazine-1-carboxylic acid (2,3-dimethyl-phenyl)-amide] | 217 to 219
32 | COc1ccc(C)cc1NC(=O)Nc1ccc(N2CCN(C(=O)C3CC4CCC3C4)CC2)cc1 (stereo not drawn) [Example 189, 1-{4-[4-(bicyclo[2.2.1]heptane-2-carbonyl)-piperazin-1-yl]-phenyl}-3-(2-methoxy-5-methyl-phenyl)-urea] | 126 to 128
33 | COc1ccc(C)cc1NC(=O)Nc1ccc2c(c1)C=CN(C(=O)Nc1c(C)cccc1Cl)C2 [Example 202, 6-[3-(2-methoxy-5-methyl-phenyl)-ureido]-3,4-dihydrido-1H-isoquinoline-2-carboxylic acid (2-chloro-6-methyl-phenyl)-amide] | 216 to 218
34 | COc1ccc(C)cc1NC(=O)Nc1ccc(N2CCN(C(=O)Nc3ccccc3)CC2)cc1 [Example 49, 4-{4-[3-(2-methoxy-5-methyl-phenyl)-ureido]-phenyl}-piperazine-1-carboxylic acid phenylamide] | 221
35 | COc1ccc(C)cc1NC(=O)Nc1ccc(N2CCN(C(=O)C3CCCCC3)CC2)cc1 [Example 48, 1-[4-(4-cyclohexanecarbonyl-piperazin-1-yl)-phenyl]-3-(2-methoxy-5-methyl-phenyl)-urea] | 222
36 | CC(C)(C)OC(=O)N1CCN(c2ccc(NC(=O)Nc3cc(Cl)ccc3Oc3ccccc3)cc2)CC1 [Example 8, 4-{4-[3-(5-chloro-2-phenoxy-phenyl)-ureido]-phenyl}-piperazine-1-carboxylic acid tert-butyl ester] | 94 to 96
